The source of these data is ChEMBL document CHEMBL4190365, “Synthesis and antiproliferative properties of new hydrophilic esters of triterpenic acids” (Eur J Med Chem, 2017).

A word on the IC50: it is the concentration that inhibits the measured activity by half.

What all share (format): functional, cell-based
The subject of test [1] is BJ. The experiment in a line: Cytotoxicity in human BJ cells assessed as reduction in cell viability incubated for 72 hrs by calcein AM cytotoxicity assay.
The subject of test [2] is G-361. As to the kind of experiment: Cytotoxicity in human G361 cells assessed as reduction in cell viability incubated for 72 hrs by calcein AM cytotoxicity assay.
Test [3] concerns CCRF-CEM. As to the kind of experiment: Cytotoxicity in human CEM cells assessed as reduction in cell viability incubated for 72 hrs by calcein AM cytotoxicity assay.
Test [4] concerns MCF7. As to the kind of experiment: Cytotoxicity in human MCF7 cells assessed as reduction in cell viability incubated for 72 hrs by calcein AM cytotoxicity assay.
Test [5] has as its system HeLa. As to the kind of experiment: Cytotoxicity in human HeLa cells assessed as reduction in cell viability incubated for 72 hrs by calcein AM cytotoxicity assay.

Take `CC(C)[C@@H]1CC[C@]2(C(=O)O[C@@H]3O[C@H](CO)[C@@H](O)[C@H](O)[C@H]3O)CC[C@]3(C)[C@H](CC[C@@H]4[C@@]5(C)CC[C@H](O)C(C)(C)[C@@H]5CC[C@]43C)[C@@H]12`: the IC50 in test [1] (Homo sapiens, BJ, 72 h) was more than 50 µM; in test [2] (Homo sapiens, G-361, 72 h), more than 50 µM; in test [3] (Homo sapiens, CCRF-CEM, 72 h), more than 50 µM; in test [4] (Homo sapiens, MCF7, 72 h), more than 50 µM; in test [5] (Homo sapiens, HeLa, 72 h), more than 50 µM.
Regarding `C=C(C)[C@@H]1CC[C@]2(C(=O)OCCN3CCCC3)CC[C@]3(C)[C@H](CC[C@@H]4[C@@]5(C)CC[C@H](O)C(C)(C)[C@@H]5CC[C@]43C)[C@@H]12`, the half-inhibitory concentration (IC50) is 15.5 µM in test [1] (bj), 7.1 µM in test [2] (g-361), 2.3 µM in test [3] (ccrf-cem) and 14.3 µM in test [4] (mcf7).
Regarding `C=C(C)[C@@H]1CC[C@]2(C(=O)OCCN3CCCCC3)CC[C@]3(C)[C@H](CC[C@@H]4[C@@]5(C)CC[C@H](O)C(C)(C)[C@@H]5CC[C@]43C)[C@@H]12`, the IC50 is 43.2 µM in test [1] (Homo sapiens, BJ, 72 h); 28.6 µM in test [2] (Homo sapiens, G-361, 72 h); 26.2 µM in test [3] (ccrf-cem); 32.8 µM in test [4] (Homo sapiens, MCF7, 72 h); 23.8 µM in test [5] (Homo sapiens, HeLa, 72 h).
For `CC(=O)O[C@H]1CC[C@]2(C)[C@H]3CC[C@@H]4C5=C(C(C)C)C(=O)C[C@]5(C(=O)O[C@@H]5O[C@H](CO)[C@H](O)[C@H](O)[C@H]5O)CC[C@@]4(C)[C@]3(C)CC[C@H]2C1(C)C`, the IC50 in test [1] (Homo sapiens, BJ, 72 h) is 48.2 µM; in test [2] (Homo sapiens, G-361, 72 h), 42.7 µM; in test [3] (Homo sapiens, CCRF-CEM, 72 h), 18.8 µM; in test [4] (Homo sapiens, MCF7, 72 h), 37 µM; in test [5] (Homo sapiens, HeLa, 72 h) it was 38.8 µM.
For the compound `CC(C)[C@@H]1CC[C@]2(C(=O)OCC(=O)OCc3ccccc3)CC[C@]3(C)[C@H](CC[C@@H]4[C@@]5(C)CC[C@H](O)C(C)(C)[C@@H]5CC[C@]43C)[C@@H]12`, the 50% inhibitory concentration (IC50) in test [1] (Homo sapiens, BJ, 72 h) was more than 50 µM; in test [2] (Homo sapiens, G-361, 72 h) it was more than 50 µM; in test [3] (Homo sapiens, CCRF-CEM, 72 h), 24.1 µM; in test [4] (Homo sapiens, MCF7, 72 h), more than 50 µM; in test [5] (Homo sapiens, HeLa, 72 h) it was more than 50 µM.
Take `CC(C)[C@@H]1CC[C@]2(C(=O)OCC(=O)O)CC[C@]3(C)[C@H](CC[C@@H]4[C@@]5(C)CC[C@H](O)C(C)(C)[C@@H]5CC[C@]43C)[C@@H]12`: the IC50 is more than 50 µM in test [1] (Homo sapiens, BJ, 72 h); more than 50 µM in test [2] (Homo sapiens, G-361, 72 h); more than 50 µM in test [3] (Homo sapiens, CCRF-CEM, 72 h); more than 50 µM in test [4] (Homo sapiens, MCF7, 72 h); more than 50 µM in test [5] (Homo sapiens, HeLa, 72 h).
Consider `CC(=O)O[C@H]1CC[C@]2(C)[C@H]3CC[C@@H]4C5=C(C(C)C)C(=O)C[C@]5(C(=O)O[C@@H]5O[C@H](CO)[C@@H](O)[C@H](O)[C@H]5O)CC[C@@]4(C)[C@]3(C)CC[C@H]2C1(C)C`, for which the IC50 in test [1] (Homo sapiens, BJ, 72 h) is 48.2 µM; in test [2] (Homo sapiens, G-361, 72 h) it was 6.7 µM; in test [3] (Homo sapiens, CCRF-CEM, 72 h), 12.2 µM; in test [4] (Homo sapiens, MCF7, 72 h) it was 6.6 µM; in test [5] (Homo sapiens, HeLa, 72 h), 9.3 µM.
The matching figures for `COCCOCCOC(=O)[C@@]12CC[C@]3(C)[C@H](CC[C@@H]4[C@@]5(C)CC[C@H](OC(C)=O)C(C)(C)[C@@H]5CC[C@]43C)C1=C(C(C)C)C(=O)C2`: more than 50 µM, 11.8 µM, 17.6 µM, 21.9 µM and 17.1 µM.
Take `C=C(C)[C@@H]1CC[C@]2(C(=O)OCCN3CCOCC3)CC[C@]3(C)[C@H](CC[C@@H]4[C@@]5(C)CC[C@H](O)C(C)(C)[C@@H]5CC[C@]43C)[C@@H]12` [listing 1 of 2 here]: the IC50 in test [3] (Homo sapiens, CCRF-CEM, 72 h) was more than 50 µM; in test [5] (hela), more than 50 µM.
As to `CC(=O)O[C@H]1CC[C@]2(C)[C@H]3CC[C@@H]4C5=C(C(C)C)C(=O)C[C@]5(C(=O)OCCN5CCOCC5)CC[C@@]4(C)[C@]3(C)CC[C@H]2C1(C)C`, the IC50 was 42.5 µM in test [1] (Homo sapiens, BJ, 72 h); 7 µM in test [2] (Homo sapiens, G-361, 72 h); 12.6 µM in test [3] (Homo sapiens, CCRF-CEM, 72 h); 14.5 µM in test [4] (Homo sapiens, MCF7, 72 h); 16.1 µM in test [5] (Homo sapiens, HeLa, 72 h).
The matching figures for `CC(=O)OC[C@H]1O[C@@H](OC(=O)[C@]2(COC(C)=O)CC[C@]3(C)[C@H](CC[C@@H]4[C@@]5(C)CC[C@H](OC(C)=O)C(C)(C)[C@@H]5CC[C@]43C)[C@@H]2O)[C@H](OC(C)=O)[C@@H](OC(C)=O)[C@@H]1OC(C)=O`: 43 µM, more than 50 µM, more than 50 µM, more than 50 µM and more than 50 µM.
For the compound `C=C(C)[C@@H]1CC[C@]2(C(=O)OCCN3CCOCC3)CC[C@]3(C)[C@H](CC[C@@H]4[C@@]5(C)CC[C@H](O)C(C)(C)[C@@H]5CC[C@]43C)[C@@H]12` [listing 2 of 2 here], the IC50 was more than 50 µM in test [1] (Homo sapiens, BJ, 72 h); more than 50 µM in test [2] (Homo sapiens, G-361, 72 h); more than 50 µM in test [4] (Homo sapiens, MCF7, 72 h); 50 µM in test [5] (Homo sapiens, HeLa, 72 h).
Regarding `CC(C)[C@@H]1CC[C@]2(C(=O)OCCN3CCCCC3)CC[C@]3(C)[C@H](CC[C@@H]4[C@@]5(C)CC[C@H](O)C(C)(C)[C@@H]5CC[C@]43C)[C@@H]12`, the IC50 is 46.5 µM in test [1] (bj); 29.9 µM in test [2] (g-361); 26.7 µM in test [3] (Homo sapiens, CCRF-CEM, 72 h); 26.1 µM in test [4] (mcf7).
